Results on three molecules are retold here after patent US20100239685A1, “COMPOUND FOR TREATMENT OR PREVENTION OF PROSTATE-RELATED DISEASES AND PHARMACEUTICAL COMPOSITION OF COLON DELIVERY SYSTEM CONTAINING THE SAME” (priority 2006, published 2010).

Series [1] can be described thus: Determination of partition coefficients (octanol / phosphate buffer pH 7.4). Format: physicochemical. Conditions: sample 200 μg/mL; octanol/water; replicates 1-3. The protocol: Octanol and phosphate buffer (pH 7.4) were saturated with a counter-solvent for 24 hours or more. A given amount of a naphthoquinone-based compound (compound 1 of Table 1 below) was dissolved in the thus-saturated octanol, mixed with triple-distilled water and stirred using a magnetic stirrer at 200 rpm for 13 hours or more. Samples were taken, filtered through a 0.45 μm RC Membrane filter and diluted with methanol. The diluted sample materials were analyzed by HPLC. A partition coefficient versus an amount of the compound 1 was determined.

Series [2] in a line: Intestinal absorption, single-pass intestinal perfusion. Format: in vivo, rats. The protocol:
In order to determine intestinal absorption (%) of a naphthoquinone-based compound, a single-pass intestinal perfusion technique was carried out in internal organs of rats, including jejunum, ileum and large intestine. The steady-state intestinal effective permeability (Peff) can be expressed according to the following equation. Peff=[−Qin·ln (Cout/Cin)]/A Peff: Steady-state intestinal effective permeability (cm/s) Qin: Perfusion flow rate (0.4 mL/min) Cin, Cout: Inlet and fluid-transport-corrected outlet solution concentrations A: Mass transfer surface area within intestinal segment (2πrL), r, L: Radius and length of intestinal segment The radius (r) and length (L) of the jejunum, ileum and large intestine used in experiments are as follows: (r: jejunum, 0.21 cm; ileum, 0.22 cm; large intestine, 0.23 cm, and L: 10 cm) The steady-state was confirmed by the ratio of the outlet to inlet concentrations (Cout/Cin) versus time. The steady-state is established when the Cout/Cin ratio of the naphthoquinone-based compound is maintained at a constant value (n=3, error bars with respect to S.D.). Residual amounts of the naphthoquinone-based compound in the above three intestinal organs were measured at different time points. The outlet steady-state concentration of the compound under perfusion was calculated. The results thus obtained are given in Table 4 and FIG. 2, respectively. The effective permeability was measured at 4 points of each intestinal tissue.

The conditions of series [3]: cited from earlier work.

Several values for one entry are separate records, joined by “and”; a condition that tells them apart may be missing. Equal entries are not always repeated.

As for `CC1(C)CCC2=C(O1)c1ccccc1C(=O)C2=O` [Compound 1], the “Partition Coefficient” value in series [1] is 2.40 and 2.20.
With `CC1(C)CCC2=C(O1)c1ccccc1C(=O)C2=O` [naphthoquinone-based compound], the Peff in series [2] (Duodenum) is recorded as 0.79 ± 0.33 × 10^−5 (cm/s); in series [2] (Ileum), 5.15 ± 1.49 × 10^−5 (cm/s); in series [2] (Jejunum), 2.37 ± 1.17 × 10^−5 (cm/s); in series [2] (Large intestine), 7.82 ± 0.93 × 10^−5 (cm/s).
On to `C[C@H]1COC2=C1C(=O)C(=O)c1c2ccc2c1CCCC2(C)C` [cryptotanshinone], for which the “absorption rate via oral administration” value in series [3] is given as 2.05%.
